According to patent US7915239B2, “Process for treating lameness administration of a bisphosphonic acid derivative” (Ceva Sante Animale, priority 1998, dated 2011):

Legend:
Assay type in all cases: in vivo
[1] = system: lameness during enthesopathy of the insertion of the tendons and the ligaments; experiment: Clinical study in horses with lameness during enthesopathy of the insertion of the tendons and the ligaments; conditions: procedure as Example 1
Description: The study was carried out on 24 horses, the diagnosis of the navicular disease causing lameness being based on the following criteria: • local signs in the palmar region: heat, swelling, pain • functional signs of limping graded on a scale from 0 (no sign of limping) to 4 (trouble in bearing weight when at rest and/or in motion and difficulty in moving around) • a functional test of locomotion after flexing the palmar region, also assessed on a scale from 0 (locomotion not changed by flexure) to 4 (start of suppression of bearing weight) • a radiological examination to assess radiological signs in the palmar region qualitatively. All the animals received, as a single treatment, disodium tiludronate in the form of an injectable solution administered intravenously at a dose of 0.1 mg/kg, at a weekly administration rate for 6 to 10 weeks. The first day of treatment corresponds to D0. To assess the effects of the treatment, the animals were reviewed 1 month after D0 (M1), 2 months after D0 (M2) and 6 months after D0 (M6). The effects of the treatment were assessed with regard to: • the local signs, the functional signs and the test of locomotion after flexure as defined during inclusion of the animal into the test • a radiological examination to assess the change in the radiological signs • an assessment of the resumption of the animal's sporting activity. […] A clinical study was carried out to evaluate the effects of a treatment with disodium tiludronate on horses which develop lameness during enthesopathy of the insertion of the tendons and the ligaments. The test procedure and the clinical monitoring of the animals were the same as those described in Example 1, except that the local, functional and radiological signs were evaluated in the region of the tendon or ligament insertions at the source of lameness. 6 horses were included in this test. The results obtained were as follows (expressed as a percentage of animals present in each category): […]

[2] = system: lameness during bone spavin; experiment: Clinical study in horses with lameness during bone spavin (osteoarthrosis of the distal stage of the tarsus); conditions: for percentage of animals in category Average / percentage of animals in category Favourable / percentage of animals in category Mediocre / percentage of animals in category Poor / percentage of animals in category Very favourable: procedure as Example 1
Description: The study was carried out on 24 horses, the diagnosis of the navicular disease causing lameness being based on the following criteria: • local signs in the palmar region: heat, swelling, pain • functional signs of limping graded on a scale from 0 (no sign of limping) to 4 (trouble in bearing weight when at rest and/or in motion and difficulty in moving around) • a functional test of locomotion after flexing the palmar region, also assessed on a scale from 0 (locomotion not changed by flexure) to 4 (start of suppression of bearing weight) • a radiological examination to assess radiological signs in the palmar region qualitatively.
All the animals received, as a single treatment, disodium tiludronate in the form of an injectable solution administered intravenously at a dose of 0.1 mg/kg, at a weekly administration rate for 6 to 10 weeks. The first day of treatment corresponds to D0.
To assess the effects of the treatment, the animals were reviewed 1 month after D0 (M1), 2 months after D0 (M2) and 6 months after D0 (M6). The effects of the treatment were assessed with regard to: • the local signs, the functional signs and the test of locomotion after flexure as defined during inclusion of the animal into the test • a radiological examination to assess the change in the radiological signs • an assessment of the resumption of the animal's sporting activity.
A clinical study was carried out in order to evaluate the effects of a treatment with disodium tiludronate on horses which develop lameness during bone spavin (which is osteoarthrosis of the distal stage of the tarsus).
The test procedure and the clinical monitoring of the animals were the same as those described in Example 1, except that the local, functional and radiological signs were assessed in the region of the hock.
5 horses were included in this test.
The results obtained were as follows (expressed as a percentage of animals present in each category): […]

[3] = system: lameness during navicular disease (podotrochlear syndrome); experiment: Clinical study in horses with lameness during navicular disease (podotrochlear syndrome); conditions: for percentage of animals in category Average / percentage of animals in category Favourable / percentage of animals in category Mediocre / percentage of animals in category Poor / percentage of animals in category Very favourable: 0.1 mg/kg i.v. weekly for 6 to 10 weeks
Description: A clinical study was carried out to evaluate the effects of a treatment with disodium tiludronate on horses which develop lameness during navicular disease (also known as podotrochlear syndrome). The study was carried out on 24 horses, the diagnosis of the navicular disease causing lameness being based on the following criteria: • local signs in the palmar region: heat, swelling, pain • functional signs of limping graded on a scale from 0 (no sign of limping) to 4 (trouble in bearing weight when at rest and/or in motion and difficulty in moving around) • a functional test of locomotion after flexing the palmar region, also assessed on a scale from 0 (locomotion not changed by flexure) to 4 (start of suppression of bearing weight) • a radiological examination to assess radiological signs in the palmar region qualitatively. To be included, the animal had to show no signs or lesions of septic arthritis, or any fractures of the bones in the palmar region. Also, it needed to have not received an injection for anti-inflammatory treatment in the joints of the palmar region. The wearing of an orthopaedic shoe was not contra-indicated since most of the animals had been […] for several weeks and were already wearing a shoe of this type. All the animals received, as a single treatment, disodium tiludronate in the form of an injectable solution administered intravenously at a dose of 0.1 mg/kg, at a weekly administration rate for 6 to 10 weeks. The first day of treatment corresponds to D0. To assess the effects of the treatment, the animals were reviewed 1 month after D0 (M1), 2 months after D0 (M2) and 6 months after D0 (M6). The effects of the treatment were assessed with regard to: • the local signs, the functional signs and the test of locomotion after flexure as defined during inclusion of the animal into the test • a radiological examination to assess the change in the radiological signs • an assessment of the resumption of the animal's sporting activity. […] The table below summarizes the effects of the treatment (expressed as a percentage of animals present in each category): […]

[4] = system: lameness associated with bone lesions during osteochondrosis; experiment: Clinical study in horses with lameness associated with sub-chondral cysts during osteochondrosis; conditions: procedure as Example 1
Description: The study was carried out on 24 horses, the diagnosis of the navicular disease causing lameness being based on the following criteria: • local signs in the palmar region: heat, swelling, pain • functional signs of limping graded on a scale from 0 (no sign of limping) to 4 (trouble in bearing weight when at rest and/or in motion and difficulty in moving around) • a functional test of locomotion after flexing the palmar region, also assessed on a scale from 0 (locomotion not changed by flexure) to 4 (start of suppression of bearing weight) • a radiological examination to assess radiological signs in the palmar region qualitatively. All the animals received, as a single treatment, disodium tiludronate in the form of an injectable solution administered intravenously at a dose of 0.1 mg/kg, at a weekly administration rate for 6 to 10 weeks. The first day of treatment corresponds to D0. To assess the effects of the treatment, the animals were reviewed 1 month after D0 (M1), 2 months after D0 (M2) and 6 months after D0 (M6). The effects of the treatment were assessed with regard to: • the local signs, the functional signs and the test of locomotion after flexure as defined during inclusion of the animal into the test • a radiological examination to assess the change in the radiological signs • an assessment of the resumption of the animal's sporting activity. […] A clinical study was carried out to evaluate the effects of a treatment with disodium tiludronate on horses which develop lameness associated with bone lesions in the form of sub-chondral cysts during osteochondrosis. The test procedure and the clinical monitoring of the animals were the same as those described in Example 1, except that the local, functional and radiological signs were evaluated in the joints affected by osteochondrosis. 5 horses were included in this test. The results obtained were as follows (expressed as a percentage of animals present in each category): […]

[5] = Examination at M1 (1 month after D0)
[6] = Examination at M2 (2 months after D0)
[7] = Examination at M6 (6 months after D0)

O=P(O)(O)C(Sc1ccc(Cl)cc1)P(=O)(O)O [disodium tiludronate, 4-chlorophenylthiomethylenebisphosphonic acid]
percentage of animals in category Average [1, 5]: 33% | percentage of animals in category Favourable [1, 5]: 50% | percentage of animals in category Mediocre [1, 5]: 17% | percentage of animals in category Poor [1, 5]: 0% | percentage of animals in category Very favourable [1, 5]: 0% | percentage of animals in category Average [1, 6]: 33% | percentage of animals in category Favourable [1, 6]: 67% | percentage of animals in category Mediocre [1, 6]: 0% | percentage of animals in category Poor [1, 6]: 0% | percentage of animals in category Very favourable [1, 6]: 0% | percentage of animals in category Average [1, 7]: 0% | percentage of animals in category Favourable [1, 7]: 40% | percentage of animals in category Mediocre [1, 7]: 20% | percentage of animals in category Poor [1, 7]: 0% | percentage of animals in category Very favourable [1, 7]: 40% | percentage of animals in category Average [2, 5]: 60% | percentage of animals in category Favourable [2, 5]: 40% | percentage of animals in category Mediocre [2, 5]: 0% | percentage of animals in category Poor [2, 5]: 0% | percentage of animals in category Very favourable [2, 5]: 0% | percentage of animals in category Average [2, 6]: 0% | percentage of animals in category Favourable [2, 6]: 60% | percentage of animals in category Mediocre [2, 6]: 0% | percentage of animals in category Poor [2, 6]: 0% | percentage of animals in category Very favourable [2, 6]: 40% | percentage of animals in category Average [2, 7]: 20% | percentage of animals in category Favourable [2, 7]: 20% | percentage of animals in category Mediocre [2, 7]: 0% | percentage of animals in category Poor [2, 7]: 20% | percentage of animals in category Very favourable [2, 7]: 40% | change in lameness induced by bone spavin after treatment ([2]; after treatment): favourable to very favourable in most of the animals | percentage of animals in category Average [3, 5]: 38% | percentage of animals in category Favourable [3, 5]: 46% | percentage of animals in category Mediocre [3, 5]: 4% | percentage of animals in category Poor [3, 5]: 4% | percentage of animals in category Very favourable [3, 5]: 8% | percentage of animals in category Average [3, 6]: 26% | percentage of animals in category Favourable [3, 6]: 43% | percentage of animals in category Mediocre [3, 6]: 5% | percentage of animals in category Poor [3, 6]: 0% | percentage of animals in category Very favourable [3, 6]: 26% | percentage of animals in category Average [3, 7]: 27% | percentage of animals in category Favourable [3, 7]: 46% | percentage of animals in category Mediocre [3, 7]: 9% | percentage of animals in category Poor [3, 7]: 0% | percentage of animals in category Very favourable [3, 7]: 18% | time at which the benefit of the treatment is optimal ([3]; after administration of the treatment is started): 2 months | share of animals with complete recovery ([3]; at the end of administration of the treatment): a quarter of the animals | radiological examination of the palmar region ([3]; pathological radiological signs): did not reveal any change in kinetics of the pathological radiological signs | percentage of animals in category Average [4, 5]: 40% | percentage of animals in category Favourable [4, 5]: 0% | percentage of animals in category Mediocre [4, 5]: 0% | percentage of animals in category Poor [4, 5]: 20% | percentage of animals in category Very favourable [4, 5]: 40% | percentage of animals in category Average [4, 6]: 20% | percentage of animals in category Favourable [4, 6]: 40% | percentage of animals in category Mediocre [4, 6]: 0% | percentage of animals in category Poor [4, 6]: 20% | percentage of animals in category Very favourable [4, 6]: 20% | percentage of animals in category Average [4, 7]: 0% | percentage of animals in category Favourable [4, 7]: 0% | percentage of animals in category Mediocre [4, 7]: 40% | percentage of animals in category Poor [4, 7]: 0% | percentage of animals in category Very favourable [4, 7]: 60%
